How the values were obtained:
[1] = test system: alopecia patients; conditions: cited from earlier work
[2] = test system: murine vibrissae follicles; assay: Hair shaft elongation of murine vibrissae follicles cultured ex vivo; parameters: species or system C3H mice; conditions: exogenous FGF-5 300 ng/mL, 8 days, versus control (FIGS. 20 and 21)
Excerpt: Five week old male C3H mice (supplied by Japan SLC, lnc., Hamamatsu, Japan) were used for isolation of vibrissae follicles. The mice were sacrificed and the vibrissae follicles were carefully dissected from the mystacial pad. Briefly, the mystacial pad was cut into two sides (left and right). The skin cut, picked at the edge by tweezers, was washed in (i) 70% Ethanol for 30 seconds, (ii) PBS for 10 seconds, (iii) fresh PBS for 10 seconds, and (iv) another fresh PBS for 10 seconds. This washing process was repeated twice. After washing, the skin cut was placed inverted to expose the vibrissae follicles in Dulbecco's Modified Eagle's Medium (DMEM; Wako Pure Chemical, Osaka, Japan) at 37° C. Under a dissecting microscope, the surrounding tissue was removed from the follicles using tweezers, carefully so as not to destroy the structure of the follicles. The isolated follicles were then placed immediately into Williams' E medium (Life Technologies, Carlsbad, USA).
From the isolated mouse vibrissae follicles, only early anagen follicles were selected and randomized into groups with 30 follicles per group. […]
Follicles in each of the treatment and control groups were incubated at 37° C. at 5% CO2 for 8 days, while exchanging the respective culture mediums every 2 days. From Day 1, elongation of hair shafts was observed and the elongation length was measured for each hair shaft every 24 hours from Day 1 to Day 8 using a micrometer under microscope. […]
Follicles in each of the treatment and control groups were incubated at 37° C. at 5% CO2 for 5 days, while exchanging the culture medium every 3 days. From Day 1, elongation of hair shafts was observed and the elongation length was measured for each hair shaft every 24 hours from Day 1 to Day 5. using a micrometer under microscope. […]

## CC(C)(C)NC(=O)[C@H]1CC[C@H]2[C@@H]3CC[C@H]4NC(=O)C=C[C@]4(C)[C@H]3CC[C@]12C [finasteride, Finasteride]
[1]; finasteride treatment
  balding male recipients with poor or no response: ≥ 35%

## Nc1cc(N2CCCCC2)nc(N)[n+]1[O-] [Minoxidil]
[1]; 2% solution
  patients with irritation of the scalp (dryness, scaling, itching, redness): approximately 7%

B1: FGF-5: FGF-5 protein (R&D Systems) added to follicle culture medium at 300 ng/mL (protein, UniProt P12034 21-268, looked up)
Fibroblast growth factor 5: HGEKRLAPKGQPGPAATDRNPRGSSSRQSSSSAMSSSSASSSPAASLGSQGSGLEQSSFQWSPSGRRTGSLYCRVGIGFHLQIYPDGKVNGSHEANMLSVLEIFAVSQGIVGIRGVFSNKFLAMSKKGKLHASAKFTDDCKFRERFQENSYNTYASAIHRTEKTGREWYVALNKRGKAKRGCSPRVKPQHISTHFLPRFKQSEQPELSFTVTVPEKKKPPSPIKPKIPLSAPRKNTNSVKYRLKFRFG
[2]
  rate of hair shaft elongation: slow the rate of hair shaft elongation over time
